Source: patent publication US7125990B2, “Imidazolyl derivatives as corticotropin releasing factor inhibitors” (Bristol-Myers Squibb COmpany, priority 2001, dated 2006)

Target: T1, CRF1 receptors (Homo sapiens, UniProt P34998)
T1 construct: endogenous in cells; host or cells: IMR-32 cells, transformed with 2.5 µM 5'-bromo-2'-deoxyuridine for 10 days; membrane preparation
T1 sequence (P34998 24-415): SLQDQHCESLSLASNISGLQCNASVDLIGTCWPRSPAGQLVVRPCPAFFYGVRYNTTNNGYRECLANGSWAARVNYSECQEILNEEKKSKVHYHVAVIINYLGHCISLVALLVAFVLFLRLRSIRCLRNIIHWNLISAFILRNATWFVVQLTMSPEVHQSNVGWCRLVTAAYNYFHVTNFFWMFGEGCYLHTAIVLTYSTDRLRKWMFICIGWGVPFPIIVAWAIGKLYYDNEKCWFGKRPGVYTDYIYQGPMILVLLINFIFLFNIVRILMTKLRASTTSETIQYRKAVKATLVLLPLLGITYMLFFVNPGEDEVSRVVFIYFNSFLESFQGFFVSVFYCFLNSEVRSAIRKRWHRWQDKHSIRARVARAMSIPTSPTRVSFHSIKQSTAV
Assay: CRF1 receptor radioligand binding assay ([125I]-oCRF competition, IMR-32 cell membranes)
Details: IMR-32 cell membranes, [125I]-oCRF 100 pM; read-out: Ki (CRF-1R)
Protocol: CRF1 receptor antagonists, by occupying the same receptors, blocks the accessibility of the receptors to CRF, a hypothalamic factor mediating body's responses to physiological and psychological stress. The following radioligand binding assay examines the ability of the antagonists to bind the CRF1 receptors by assessing their ability to compete with binding of CRF to the receptors in cell membrane.
Tissue culture and membrane preparation. IMR-32 cells were grown at 37° C. in 5% CO2 as a monolayer in medium consisting of MEM supplemented with 10% heat-inactivated fetal bovine serum, 0.1 mM nonessential amino acids, 1 mM sodium pyruvate and 2 mM L-glutamine. […] After transformation, cells were rinsed twice with phosphate-buffered saline, and incubated for 10–15 min. at 4° C. in homogenization buffer consisting of 50 mM Tris (pH 7.2), 10 mM MgCl2 and 2 mM EGTA. Cells were transferred from plates to polypropylene tubes (16×100 mm), homogenized and centrifuged at 32,000×g for 15 min. Pellets were resuspended by homogenization in buffer and centrifuged at 32,000×g for 15 min. Pellets were resuspended in homogenization buffer then stored at −80° C. until needed.
Radioligand binding assays. […] The assay buffer consisted of 50 mM Tris (pH 7.2), 10 mM MgCl2, 0.5% BSA, 0.005% Triton X-100, 10 μg/mL aprotinin and 10 μg/mL leupeptin. Assays were stopped by addition of ice-cold wash buffer (50 mM Tris, pH 7.4 and 0.2% BSA). Filtration over glass fiber filters (Whatman GF/B) previously soaked in 50 mM Tris, pH 7.2 and 1% BSA was carried out using a Brandel cell harvester. Filters were washed with 10 mL of ice-cold wash buffer. Non-specific binding was defined with 10 μM oCRF. IC50 values for oCRF and test compounds were calculated by nonlinear regression using a one-site binding curve (GraphPad Prism).

| Compound | Ki [nM] |
| --- | --- |
| CCCN(CCc1ccccc1)C(=O)c1c(CC)nc2n1CCN2c1c(C)cc(C)cc1C [Example 13, 2-Ethyl-7-(2,4,6-trimethyl-phenyl)-6,7-dihydro-5H-imidazo[1,2-a]imidazole-3-carboxylic acid phenethyl-propyl-amide] | < 1000 |
| CCc1nc2n(c1C(=O)N(CCC(F)(F)F)Cc1ccc(Cl)cc1)CCN2c1c(C)cc(C)cc1C [Example 14, 2-Ethyl-7-(2,4,6-trimethyl-phenyl)-6,7-dihydro-5H-imidazo[1,2-a]imidazole-3-carboxylic acid (4-chloro-benzyl)-(3,3,3-trifluoro-propyl)-amide] | < 1000 |
| CCCCN(CC)C(=O)c1c(CC)nc2n1CCN2c1c(C)cc(C)cc1C [Example 15, 2-Ethyl-7-(2,4,6-trimethyl-phenyl)-6,7-dihydro-5H-imidazo[1,2-a]imidazole-3-carboxylic acid butyl-ethyl-amide] | < 1000 |
| CCc1nc2n(c1C(=O)N(CC)CCC1CC1)CCN2c1c(C)cc(C)cc1C [Example 16, 2-Ethyl-7-(2,4,6-trimethyl-phenyl)-6,7-dihydro-5H-imidazo[1,2-a]imidazole-3-carboxylic acid (2-cyclopropyl-ethyl)-ethyl-amide] | < 1000 |
| CCc1nc2n(c1C(=O)N(CCC1CC1)CCC(F)(F)F)CCN2c1c(C)cc(C)cc1C [Example 17, 2-Ethyl-7-(2,4,6-trimethyl-phenyl)-6,7-dihydro-5H-imidazo[1,2-a]imidazole-3-carboxylic acid (2-cyclopropyl-ethyl)-(3,3,3-trifluoro-propyl)-amide] | < 1000 |
| CCc1nc2n(c1C(=O)N(CCC(F)(F)F)Cc1ccccc1)CCN2c1c(C)cc(C)cc1C [Example 18, 2-Ethyl-7-(2,4,6-trimethyl-phenyl)-6,7-dihydro-5H-imidazo[1,2-a]imidazole-3-carboxylic acid benzyl-(3,3,3-trifluoro-propyl)-amide] | < 1000 |
| C=CCN(CCC)C(=O)c1c(CC)nc2n1CCN2c1c(C)cc(C)cc1C [Example 19, 2-Ethyl-7-(2,4,6-trimethyl-phenyl)-6,7-dihydro-5H-imidazo[1,2-a]imidazole-3-carboxylic acid allyl-propyl-amide] | < 1000 |
| CCCN(CCC1CC1)C(=O)c1c(CC)nc2n1CCN2c1c(C)cc(C)cc1C [Example 20, 2-Ethyl-7-(2,4,6-trimethyl-phenyl)-6,7-dihydro-5H-imidazo[1,2-a]imidazole-3-carboxylic acid (2-cyclopropyl-ethyl)-propyl-amide] | < 1000 |
| CCCN(Cc1ccc(Cl)cc1)C(=O)c1c(CC)nc2n1CCN2c1c(C)cc(C)cc1C [Example 21, 2-Ethyl-7-(2,4,6-trimethyl-phenyl)-6,7-dihydro-5H-imidazo[1,2-a]imidazole-3-carboxylic acid (4-chloro-benzyl)-propyl-amide] | < 10000 |
| C=CCN(CC=C)C(=O)c1c(CC)nc2n1CCN2c1c(C)cc(C)cc1C [Example 22, 2-Ethyl-7-(2,4,6-trimethyl-phenyl)-6,7-dihydro-5H-imidazo[1,2-a]imidazole-3-carboxylic acid diallylamide] | < 10000 |
| CCc1nc2n(c1C(=O)N(CCc1ccccc1)CCC(F)(F)F)CCN2c1c(C)cc(C)cc1C [Example 23, 2-Ethyl-7-(2,4,6-trimethyl-phenyl)-6,7-dihydro-5H-imidazo[1,2-a]imidazole-3-carboxylic acid phenethyl-(3,3,3-trifluoro-propyl)-amide] | < 10000 |
| CCc1nc2n(c1C(=O)N(CCC(F)(F)F)Cc1cccc(F)c1)CCN2c1c(C)cc(C)cc1C [Example 24, 2-Ethyl-7-(2,4,6-trimethyl-phenyl)-6,7-dihydro-5H-imidazo[1,2-a]imidazole-3-carboxylic acid (3-fluoro-benzyl)-(3,3,3-trifluoro-propyl)-amide] | < 10000 |
| CCCN(Cc1ccccc1)C(=O)c1c(CC)nc2n1CCN2c1c(C)cc(C)cc1C [Example 25, 2-Ethyl-7-(2,4,6-trimethyl-phenyl)-6,7-dihydro-5H-imidazo[1,2-a]imidazole-3-carboxylic acid benzyl-propyl-amide] | < 10000 |

Further lines, results first:

| Ki [nM] | Compound |
| --- | --- |
| < 1000 | CCCN(CC1CC1)C(=O)c1c(C)nc2n1CCN2c1c(C)cc(C)cc1C [Example 1, 2-Methyl-7-(2,4,6-trimethyl-phenyl)-6,7-dihydro-5H-imidazo[1,2-α]imidazole-3-carboxylic acid cyclopropylmethyl-propyl-amide] |
| < 100 | CCCN(CC1CC1)C(=O)c1c(CC)nc2n1CCN2c1c(C)cc(C)cc1C [Example 2, 2-Ethyl-7-(2,4,6-trimethyl-phenyl)-6,7-dihydro-5H-imidazo[1,2-α]imidazole-3-carboxylic acid cyclopropylmethyl-propyl-amide] |
| < 100 | CCc1nc2n(c1C(=O)N(CC1CC1)CC(F)(F)F)CCN2c1c(C)cc(C)cc1C [Example 5, 2-Ethyl-7-(2,4,6-trimethyl-phenyl)-6,7-dihydro-5H-imidazo[1,2-a]imidazole-3-carboxylic acid cyclopropylmethyl-(2,2,2-trifluoro-ethyl)-amide] |
| < 100 | CCCN(CC(F)(F)F)C(=O)c1c(CC)nc2n1CCN2c1c(C)cc(C)cc1C [Example 6, 2-Ethyl-7-(2,4,6-trimethyl-phenyl)-6,7-dihydro-5H-imidazo[1,2-a]imidazole-3-carboxylic acid propyl-(2,2,2-trifluoro-ethyl)-amide] |
| < 100 | CCc1nc2n(c1C(=O)N(CC1CC1)CC(F)(F)C(F)(F)F)CCN2c1c(C)cc(C)cc1C [Example 7, 2-Ethyl-7-(2,4,6-trimethyl-phenyl)-6,7-dihydro-5H-imidazo[1,2-a]imidazole-3-carboxylic acid cyclopropylmethyl-(3,3,3,2,2-pentafluoro-propyl)-amide] |
| < 100 | CCc1nc2n(c1C(=O)N(CC1CC1)CC1CC1)CCN2c1c(C)cc(C)cc1C [Example 8, 2-Ethyl-7-(2,4,6-trimethyl-phenyl)-6,7-dihydro-5H-imidazo[1,2-a]imidazole-3-carboxylic acid cyclopropylmethyl-(cyclopropylmethyl)-amide] |
| < 100 | CCc1nc2n(c1C(=O)N(CCC(F)(F)F)CC1CC1)CCN2c1c(C)cc(C)cc1C [Example 9, 2-Ethyl-7-(2,4,6-trimethyl-phenyl)-6,7-dihydro-5H-imidazo[1,2-a]imidazole-3-carboxylic acid cyclopropylmethyl-(3,3,3-trifluoro-propyl)-amide] |
| < 100 | CCc1nc2n(c1C(=O)N(CC)CC1CC1)CCN2c1c(C)cc(C)cc1C [Example 10, 2-Ethyl-7-(2,4,6-trimethyl-phenyl)-6,7-dihydro-5H-imidazo[1,2-a]imidazole-3-carboxylic acid cyclopropylmethyl-(ethyl)-amide] |
| < 1000 | CCCN(CCC)C(=O)c1c(CC)nc2n1CCN2c1c(C)cc(C)cc1C [Example 11, 2-Ethyl-7-(2,4,6-trimethyl-phenyl)-6,7-dihydro-5H-imidazo[1,2-a]imidazole-3-carboxylic acid dipropyl-amide] |
| < 1000 | CCCN(CCC(F)(F)F)C(=O)c1c(CC)nc2n1CCN2c1c(C)cc(C)cc1C [Example 12, 2-Ethyl-7-(2,4,6-trimethyl-phenyl)-6,7-dihydro-5H-imidazo[1,2-a]imidazole-3-carboxylic acid propyl-(3,3,3-trifluoropropyl)-amide] |
